Measured values taken from patent US8367662B2, “Organic compounds” (Novartis AG, priority 2007, dated 2013).

T1: human ALK5 (ALK5 T204D kinase domain) (Homo sapiens, UniProt P36897, T204D)
T1 construct: The kinase domain of human ALK5 (amino acids 200-503); made in house; host or cells: insect cells (baculovirus)
T1 sequence (P36897 200-503 T204D): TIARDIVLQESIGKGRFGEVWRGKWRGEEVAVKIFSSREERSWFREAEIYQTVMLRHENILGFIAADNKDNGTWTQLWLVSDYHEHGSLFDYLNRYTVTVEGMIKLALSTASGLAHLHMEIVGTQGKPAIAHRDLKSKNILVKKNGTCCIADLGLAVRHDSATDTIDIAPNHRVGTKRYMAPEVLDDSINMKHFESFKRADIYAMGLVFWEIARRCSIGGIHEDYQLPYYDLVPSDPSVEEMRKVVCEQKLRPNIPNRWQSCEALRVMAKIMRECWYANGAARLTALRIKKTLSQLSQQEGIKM

B1: follistatin: an antagonist of activin signalling (protein, UniProt P19883 30-344, looked up)
Follistatin: GNCWLRQAKNGRCQVLYKTELSKEECCSTGRLSTSWTEEDVNDNTLFKWMIFNGGAPNCIPCKETCENVDCGPGKKCRMNKKNKPRCVCAPDCSNITWKGPVCGLDGKTYRNECALLKARCKEQPELEVQYQGRCKKTCRDVFCPGSSTCVVDQTNNAYCVTCNRICPEPASSEQYLCGNDGVTYSSACHLRKATCLLGRSIGLAYEGKCIKAKSCEDIQCTGGKKCLWDFKVGRGRCSLCDELCPDSKSDEPVCASDNATYASECAMKEAACSSGVLLEVKHSGSCNSISEDTEEEEEDEDQDYSFPISSILEW

system: dimethylnitrosamine induced liver fibrosis; test: not given; details: rat, during the 3 weeks treatment; cited from earlier work

| Molecule | side effects |
| --- | --- |
| c1ccc(-c2cc(-c3cn[nH]c3-c3ccccn3)ccn2)cc1 [GW6604] | no obvious side effects |

same assay, conditions: rat, given therapeutically, dimethylnitrosamine induced liver fibrosis; cited from earlier work

| Molecule | death rate prevented [%] | inhibition of extracellular matrix deposition [%] |
| --- | --- | --- |
| c1ccc(-c2cc(-c3cn[nH]c3-c3ccccn3)ccn2)cc1 [GW6604] | 40 | 60 |

system: bleomycin-treated rats; test: not given; details: cited from earlier work

| Molecule | lung fibrosis | number of macrophages and neutrophils in bronchoalveolar lavage |
| --- | --- | --- |
| B1 | attenuated lung fibrosis | significantly reduced |

biological target: T1, human ALK5 (ALK5 T204D kinase domain); test: ALK5 kinase assay: [33P] phosphate incorporation into casein; assay type: biochemical; details: casein substrate, 1 μM unlabelled ATP
Method: The kinase activity of ALK5 is assessed by measuring radiolabelled phosphate [33P] incorporation in to the generic substrate, casein. The kinase domain of human ALK5 (amino acids 200-503) is fused to an N-terminal histidine tag. The kinase activity of ALK5 is rendered constitutive via point mutation at amino acid 204 (threonine to aspartate modification, ALK5 T204D) and the kinase construct is engineered to be expressed from a baculovirus expression construct in insect cells. The purified, recombinantly-expressed histidine-tagged ALK5 T204D protein is dissolved at 5.4 mg/ml in 50 mM Tris-HCl pH 8.0, 150 mM NaCl, 5 mM DTT. ALK5 T204D is dissolved to 2.5 μg/ml in assay buffer (Assay buffer: 20 mM Tris-HCl pH 7.4, 10 mM MgCl2, 2 mM MnCl2) on the day of use.
Test compounds and reference compounds are dissolved in assay buffer without DTT containing 5% (v/v) DMSO. Stock solutions of test and reference compounds are diluted in assay buffer with DTT (1.25 mM) containing 4.5% (v/v) DMSO. 10 μl of test or reference compound are added to the appropriate wells of 96 well U-bottomed plate. Total enzyme activity is determined by measuring ALK5 T204D activity in the absence of ALK5 kinase inhibitor reference compounds. Non-specific binding (NSB) is determined by measuring the activity of ALK5 T204D in the presence of ALK5 kinase inhibitor reference compounds. 10 μl of dephosphorylated casein stock solution (dephosphorylated casein is dissolved in ddH2O at 20 mg/ml) is added per well (200 μg/well final assay concentration). 20 μl of ALK5 T204D (2.5 μg/ml solution) is added per well (50 ng/well final assay concentration). The plates are left to incubate at room temperature for 10 minutes.
10 μl of ATP mix is added to the well to initiate the reaction (0.66 nM [^33P]ATP/1 μM unlabelled ATP/well final assay concentration). The ATP mix is prepared as follows, unlabelled ATP (3 mM) is dissolved in ddH2O and pH adjusted to 7.4. The stock concentration of [^33P]ATP is 10 μCi/μl. The appropriate volume of [^33P]ATP is added to unlabelled ATP solution such that the final assay concentration per well is 0.1 μCi. Following addition of the ATP mix, the plates are incubated at room temperature for 50 minutes. The kinase reaction is terminated by the addition of 50 μL Stop Buffer (20 mM Tris-HCl pH 7.4, 10 mM EDTA).
75 μ/well from the reaction plate is transferred to a Multiscreen-IP plate (MultiScreen-IP plates are prepared by added 50 μL of 70% (v/v) ethanol per well and incubated for 5 minutes at room temperature. The ethanol is removed by aspiration via a MultiScreen HTS Vaccum Manifold unit (Millipore, Cat no: MSVMHT500). The plates are washed twice by adding 200 μl/well ddH2O). The MultiScreen-IP plate is incubated at room temperature for 30 minutes to allowing binding of casein to the plate. The MultiScreen-IP plates are washed three times by adding 200 μl/well 100 mM phosphoric acid solution and the gasket is carefully removed from the back of the MultiScreen-IP plate and the plate dried in the oven for 30 minutes. The MultiScreen-IP plate is backsealed, 50 μL of Microscint®20 is added, then the plates are topsealed and radiolabelled casein detected and quantified on a TopCount™ plate-reader using the ^33P scintillation protocol.

| IC50 [nM] | Molecule |
| --- | --- |
| 76 | Fc1cccc(-c2cc(-c3cnc4cc(-c5cccnc5)ccn34)ccn2)c1 [Example 1.17, 3-[2-(3-Fluoro-phenyl)-pyridin-4-yl]-7-pyridin-3-yl-imidazo[1,2-a]pyridine] |
| 52 | O=Cc1cccc(-c2ccn3c(-c4ccnc(N5CCCC5)c4)cnc3c2)c1 [Example 1.46, 3-[3-(2-Pyrrolidin-1-yl-pyridin-4-yl)-imidazo[1,2-a]pyridin-7-yl]-benzaldehyde] |
| 4 | c1cncc(-c2ccn3c(-c4cccc(-n5cccn5)c4)cnc3c2)c1 [Example 1.1, 3-(3-Pyrazol-1-yl-phenyl)-7-pyridin-3-yl-imidazo[1,2-a]pyridine] |
| 77 | CNC(=O)c1cccc(-c2ccn3c(-c4ccnc(-n5ccc(C)n5)c4)cnc3c2)c1 [Example 1.23, N-Methyl-3-{3-[2-(3-methyl-pyrazol-1-yl)-pyridin-4-yl]-imidazo[1,2-a]pyridin-7-yl}-benzamide] |
| 8 | c1ccc(-c2cc(-c3cnc4cc(-c5ccc(N6CCOCC6)nc5)ccn34)ccn2)cc1 [Example 1.5, 7-(6-Morpholin-4-yl-pyridin-3-yl)-3-(2-phenyl-pyridin-4-yl)-imidazo[1,2-a]pyridine] |
| 47 | Fc1ccccc1-c1cc(-c2cnc3cc(-c4cccnc4)ccn23)ccn1 [Example 1.30, 3-[2-(2-Fluoro-phenyl)-pyridin-4-yl]-7-pyridin-3-yl-imidazo[1,2-a]pyridine] |
| 147 | c1cc(-c2cnc3ccc(-c4ccoc4)cn23)cc(-c2ccoc2)n1 [Example 2.12, 6-Furan-3-yl-3-(2-Furan-3-yl-pyridin-4-yl)-imidazo[1,2-a]pyridine] |
| 55 | CNC(=O)c1cccc(-c2ccn3c(-c4ccnc(-c5cccc(F)c5)c4)cnc3c2)c1 [Example 1.13, 3-{3-[2-(3-Fluoro-phenyl)-pyridin-4-yl]-imidazo[1,2-a]pyridin-7-yl}-N-methyl-benzamide] |
| 97 | CS(=O)(=O)Nc1cccc(-c2ccc3ncc(-c4ccnc(-c5ccoc5)c4)n3c2)c1 [Example 2.20, N-{3-[3-(2-Furan-3-yl-pyridin-4-yl)-imidazo[1,2-a]pyridin-6-yl]-phenyl}-methanesulfonamide] |
| 86 | O=Cc1cccc(-c2ccn3c(-c4cccc(-n5cccn5)c4)cnc3c2)c1 [Example 1.9, 3-[3-(3-Pyrazol-1-yl-phenyl)-imidazo[1,2-a]pyridin-7-yl]-benzaldehyde] |
| 57 | CNC(=O)c1ccc(-c2ccc3ncc(-c4ccnc(-c5ccoc5)c4)n3c2)cc1 [Example 2.18, 4-[3-(2-Furan-3-yl-pyridin-4-yl)-imidazo[1,2-a]pyridin-6-yl]-N-methyl-benzamide] |
| 281 | CCOc1cc(-c2cnc3ccc(N[C@H]4CC[C@H](O)CC4)cn23)ccn1 [Example 2.7] |
| 108 | COc1cc(-c2cnc3ccc(N[C@H]4CC[C@H](O)CC4)cn23)ccn1 [Example 2.2] |
